Experimental data as given in patent US6399759B1, “Ant proteases and methods of inhibition” (University of Georgia Research Foundation, Inc., priority 1999, dated 2002).
“And” between values parts separate entries of the source, which are not always exact repeats. Identical values can stand only once. Where a SMILES comes first, the peptide text is derived from it. [ ]: non-standard residue; d: D form. The star is where a group is joined. Sta = CC(C)C[C@H](N)[C@@H](O)CC(=O)O; Isovaleryl = CC(C)CC(=O)*

How the values were obtained:
[1] = test system: Soli C2; assay: Inhibition of amidolytic activity by synthetic inhibitors; assay type: biochemical, Solenopsis invicta
[2] = test system: Soli E1; assay: as above; assay type: biochemical, Solenopsis invicta
[3] = biological target: T1, Soli C1 (Solenopsis invicta, UniProt Q7SIG2); assay type: biochemical
T1 construct: Fourth instar larvae were extracted in a 1:10 (weight/volume) ratio of 20 mM Tris-HCl pH 7.4; from tissue; host or cells: whole Solenopsis invicta 4th instar larvae (buffer extract, acetone precipitation, Q Sepharose peak III, Mono Q, Superdex 75)

[4] = test system: Soli E2; assay: Inhibition of amidolytic activity by synthetic inhibitors; assay type: biochemical, Solenopsis invicta
[5] = biological target: T1, Soli C1; assay: Inhibition of amidolytic activity by naturally occurring protease inhibitors; assay type: biochemical; details: 10 minutes incubation at 25° C. in 50 mM Tris-HCl, 100 mM NaCl, pH 7.4
Procedure: (§1) Enzyme Assay—Generally, the amidolytic activities of each proteinase were measured with the substrates MeOSuc-Ala-Ala-Pro-Val-pNA (SEQ ID NO:8) and N-Suc-Ala-Ala-Pro-Phe-pNA (SEQ ID NO:7) in 0.05 M Tris-HCl and 100 mM NaCl pH 7.4 (assay buffer). Release of the pNA group was assayed by monitoring the optical density of the test solution at […]. Enzyme inhibition assays by protein inhibitors were conducted in the same assay buffer using an inhibitor concentration ranging from 0.02-50 nM with a 10 minute preincubation time and with the final enzyme concentration being 1.0 nM. All kinetic studies with substrates and inhibitors were performed at the optimum pH of the individual proteinases, utilizing the following buffers: 150 mM NaCl, 50 mM Tris-HCl pH 8.0 (E1); 150 mM NaCl, 50 mM CHES pH 9.5 (E2 and C2); and 150 mM NaCl, 50 mM CAPS pH 10.0 (C1).

[6] = test system: Soli C2; assay: as above; assay type: biochemical, Solenopsis invicta; details: 10 minutes incubation at 25° C. in 50 mM Tris-HCl, 100 mM NaCl, pH 7.4
Procedure: as §1

[7] = test system: Soli E1; assay: as above; assay type: biochemical, Solenopsis invicta; details: 10 minutes incubation at 25° C. in 50 mM Tris-HCl, 100 mM NaCl, pH 7.4
Procedure: as §1

[8] = test system: Soli E2; assay: as above; assay type: biochemical, Solenopsis invicta; details: 10 minutes incubation at 25° C. in 50 mM Tris-HCl, 100 mM NaCl, pH 7.4
Procedure: as §1

[9] = Isoelectrofocusing (IEF) of the purified proteinases; assay type: physicochemical, Solenopsis invicta; details: IEF gels pH 3-10, Serva Test Mix 9 standards
Procedure: IEF—Isoelectrofocusing of the purified proteinases was performed on precast isoelectric focusing gels (pH 3-10) obtained under the trade designation […] PRECOTES (Cresent Chemical Co., Inc., Hauppauge, N.Y.). Sample preparations and isoelectrofocusing were carried out following instructions provided by Pharmacia and using the Pharmacia Flatbed Electrophoresis Unit.
IEF—Based on Serva Test Mix 9 IEF standards (Cresent Chemical Co., Inc.), the proteinases migrated to the following pI's; Soli E1, 10.0; Soli E2 (3 isoforms), 6.9, 8.3, 8.5; Soli C1, 4.7; and Soli C2, 4.2.

[10] = pH optimum of the purified proteinases; assay type: biochemical, Solenopsis invicta; details: Vmax of substrate hydrolysis, room temperature, pH range 3.0 to 12.0
Procedure: (§2) pH analysis—The determination of pH optimum and stability for each enzyme was performed using a Universal Phosphate Buffer system, which is a buffer made from boric acid and phosphoric acid titrated with sodium hydroxide such that the ionic strength is the same at any pH. Briefly, equal volumes of a solution of 80 mM boric acid and a solution of 80 mM phosphoric acid were combined, and 200 mM sodium hydroxide was added to bring the mixture to the desired pH.

[11] = assay type: physicochemical, Solenopsis invicta
Procedure: as §2

T1 sequence (Q7SIG2 whole entry): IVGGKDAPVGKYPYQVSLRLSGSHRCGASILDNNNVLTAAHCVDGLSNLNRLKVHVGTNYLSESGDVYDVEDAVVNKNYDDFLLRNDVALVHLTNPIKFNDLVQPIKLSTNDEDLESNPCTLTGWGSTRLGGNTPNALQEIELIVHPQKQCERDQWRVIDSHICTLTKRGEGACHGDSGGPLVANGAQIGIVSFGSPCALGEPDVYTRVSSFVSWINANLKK

| Compound | Inhibition of Soli C2 by class-specific proteinase inhibitors (in words) [1] | Inhibition of Soli E1 by class-specific proteinase inhibitors (in words) [2] | Inhibition of Soli C1 by class-specific proteinase inhibitors (in words) [3] | pI [9] | pH optimum [10] | Stability of enzyme activity [11] | further results |
| --- | --- | --- | --- | --- | --- | --- | --- |
| CC(C)C[C@H](NC(=O)[C@H]1O[C@@H]1C(=O)O)C(=O)NCCCCN=C(N)N (relative stereo) [E-64, trans-epoxysuccinyl-L-leucylamido-(4-guanidino)butane] | not | not | not |  |  |  |  |
| O=c1oc(Cl)c(Cl)c2ccccc12 [DCIC, 3,4-dichloroisocoumarin] | not Soli C1 or Soli C2, except after long incubation periods | inhibited | not Soli C1 or Soli C2, except after long incubation periods |  |  |  | Inhibition of Soli E2 by class-specific proteinase inhibitors (in words) [4]: inhibited |
| O=C(O)CN(CCN(CC(=O)O)CC(=O)O)CC(=O)O [EDTA, ethylenediaminetetraacetate·2H2O] | not | not | not |  |  |  |  |
| CC(C)CC(=O)N[C@H](C(=O)N[C@H](C(=O)N[C@@H](CC(C)C)[C@@H](O)CC(=O)N[C@@H](C)C(=O)N[C@@H](CC(C)C)[C@@H](O)CC(=O)O)C(C)C)C(C)C [Pepstatin] (Isovaleryl-VV[Sta]A[Sta]-OH) | not | not | not |  |  |  |  |
| Canadian Goose OM Domain III: Domain III of Canadian goose ovomucoid |  |  |  |  |  |  | IC50 [5]: > 50 nM; IC50 [6]: > 50 nM; IC50 [7]: 1.51 nM; IC50 [8]: 27.3 nM |
| Domestic Goose OM Domain III: Domain III of domestic goose ovomucoid |  |  |  |  |  |  | IC50 [5]: > 50 nM; IC50 [6]: > 50 nM; IC50 [7]: > 50 nM; IC50 [8]: 5.58 nM |
| Soli C1: chymotrypsin-like serine proteinase, about 25 kDa, from S. invicta 4th instar larvae (IVGGDAPVGKYPYQVSLRLSG) |  |  |  | 4.7 | 9.0-10.5 | stable for several days |  |
| Soli C2: chymotrypsin-like serine proteinase, about 28 kDa, from S. invicta 4th instar larvae (IVGGEPAPGGAYPFIVSLQV) |  |  |  | 4.2 | 9.0 | lost their activities fairly quickly over all pHs | pH at which most stable [11]: 8.0 |
| Soli E1: elastase-like serine proteinase, about 23 kDa, from S. invicta 4th instar larvae (IVGGQPATPGEFPHQGSLRV) |  |  |  | 10.0 | 8.0 | lost their activities fairly quickly over all pHs | pH at which most stable [11]: 7.0 |
| Soli E2: elastase-like serine proteinase, about 24 kDa, from S. invicta 4th instar larvae (IVGGQDAAPGEFPHQGSLRLRGSHI) |  |  |  | 6.9 and 8.3 and 8.5 | 8.5-10 | lost their activities fairly quickly over all pHs | pH at which most stable [11]: 8.5 |
| α1-PI: α-1-Proteinase Inhibitor |  |  |  |  |  |  | IC50 [5]: 0.338 nM; IC50 [6]: 0.271 nM; IC50 [7]: 1.2 nM; IC50 [8]: 0.604 nM |
